Active and inactive are the calls of the source. The rule behind the calls is not given here.

The species named for assay [1] is Mus musculus. Briefly: Evaluated for the percentage blockade of activity in mice. Format: functional.
The species named for assay [2] is Mus musculus. Briefly: Evaluated for the spontaneous motor activity in mice and the mean total activity (MTA) was reported; Expressed as counts/90 min/3 mice. Format: functional.
The test system of assay [3] is Mus musculus. Briefly: Ability to stimulate mice at dose of 8 mg/kg; Slight increase in spontaneous motor activity. Format: functional, organism-based. More on the design: dose 8 mg/kg.
The subject of assay [4] is Rattus norvegicus. Briefly: Number of rats falling (1) within each stereotypy classification after intraperitoneal administration (110 uM/Kg); continuous sniffing, some arousal. The format is functional, organism-based.
Assay [5] deals with Rattus norvegicus. Briefly: Number of rats falling (3) within each stereotypy classification after intraperitoneal administration (110 uM/Kg); continuous sniffing, some head bobbing and weaving (total rats 4). Format: functional, organism-based.
The subject of assay [6] is Rattus norvegicus. Briefly: Number of rats falling (4) within each stereotypy classification after intraperitoneal administration (110 uM/Kg); continuous sniffing, with repetitive sequences of head and limb movements, as well as some licking and rearing (total rats 4). The format is functional, organism-based.

The compound `CC(N)Cc1ccccc1.COC(=O)C(C)(N)Cc1ccc(O)cc1` (stereo not given) gave a Block of activity in the assay filed under Mus musculus [1] of 64.2%. Further, in the assay listed under Mus musculus [2], the MTA is listed as 5144.

In the case of `COC(=O)C(C)(N)Cc1ccc(O)cc1.NC1C=Cc2ccccc2C1` (stereo not given), the Block of activity in the assay filed under Mus musculus [1] worked out at 59.3%. Also, the MTA in the assay filed under Mus musculus [2] stood at 3491.

For the compound `NC1CCc2ccccc2C1` (stereo not given), in the assay with Mus musculus [3], the outcome was Active.

With `COC(=O)[C@H]1[C@H]2C[C@@H]3c4[nH]c5cc(OC)ccc5c4CCN3C[C@H]2C[C@@H](OC(=O)c2cc(OC)c(OC)c(OC)c2)[C@@H]1OC.Cl.NC1C=Cc2ccccc2C1` (racemic), the Activity result in the assay on Rattus norvegicus [4] is recorded as “continuous sniffing, some arousal”; with Rattus norvegicus [5], “continuous sniffing, some arousal”.

With `NC1C=Cc2ccccc2C1` (racemic), in the assay with Rattus norvegicus [6], the Activity result was “continuous sniffing, with repetitive sequences of head and limb movements, as well as some licking and rearing (total rats 4)”.

On to `Cl.NC1C=Cc2ccccc2C1` (single isomer, unassigned; (-)), for which the MTA in the assay listed under Mus musculus [2] was found to be 8566.

In the assay listed under Mus musculus [2], `C[C@H](N)Cc1ccccc1` [DEXTROAMPHETAMINE] yielded an MTA of 14356.

For the origin of these results see ChEMBL document CHEMBL1122053, “A new, potent, conformationally restricted analogue of amphetamine: 2-amino-1,2-dihydronaphthalene” (1982).
